The source made the active and inactive calls.
How the values were obtained:
[1] = NIH-3T3 fibroblast cytotoxicity, dose response, cytotoxicity control, cell-based, fluorescence, Alamar Blue, secondary assay (AID 2327); format: functional;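 further: NIH-3T3 mouse fibroblasts cultured with fluconazole at 8 µg/mL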
[2] = target: ATP-dependent molecular chaperone HSP82 (Candida albicans (strain WO-1) (Yeast), UniProt C4YTQ8); experiment: loss of DOC-induced GRE-beta-galactosidase reporter signal, dose response, Hsp90 inhibitor project, S. cerevisiae, luminescence (AID 2400); format: functional, cell-based;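 further: beta-galactosidase luminescence from glucocorticoid response element reporter as proxy for Hsp90 function; inhibitor potency where signal loss means Hsp90 inhibition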
[3] = target: T1, Sphingosine 1-phosphate receptor 4 (Homo sapiens, UniProt O95977); experiment: Fluorescence dose response cell-based high throughput screening assay for antagonists of the Sphingosine 1-Phosphate Receptor 4 (S1P4). [Related pubchem assays: 1524 (Confirmation in triplicates.), 1510 (Primary screen.)]; format: functional
T1 sequence (O95977 whole entry): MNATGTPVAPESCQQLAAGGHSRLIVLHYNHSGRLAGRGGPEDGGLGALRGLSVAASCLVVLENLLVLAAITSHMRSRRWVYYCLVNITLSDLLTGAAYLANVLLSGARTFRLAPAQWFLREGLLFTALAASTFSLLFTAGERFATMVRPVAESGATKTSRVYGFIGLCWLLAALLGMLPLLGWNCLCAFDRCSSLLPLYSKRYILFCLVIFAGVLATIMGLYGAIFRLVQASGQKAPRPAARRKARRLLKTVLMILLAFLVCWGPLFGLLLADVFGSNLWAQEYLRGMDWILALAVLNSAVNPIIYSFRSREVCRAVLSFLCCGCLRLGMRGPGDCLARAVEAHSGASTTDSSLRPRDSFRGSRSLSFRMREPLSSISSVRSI

[4] = target: Sphingosine 1-phosphate receptor 1 (Homo sapiens, UniProt P21453); format: functional;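 further: Tango beta-arrestin reporter U2OS cells stimulated with S1P near its EC80; inhibitor potency meaning antagonism of receptor activation by the natural agonist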
[5] = target: Voltage-gated N-type calcium channel alpha-1B subunit/Amyloid beta A4 precursor protein-binding family A member 1 (Homo sapiens, UniProt Q00975+Q02410); format: protein assay
[6] = target: T2, Calpain-2 catalytic subunit (Sus scrofa, UniProt P43367); experiment: pig calpain II inhibitor potency, dose response, biochemical, fluorogenic peptide substrate (AID 1420); format: functional
T2 sequence (P43367 whole entry): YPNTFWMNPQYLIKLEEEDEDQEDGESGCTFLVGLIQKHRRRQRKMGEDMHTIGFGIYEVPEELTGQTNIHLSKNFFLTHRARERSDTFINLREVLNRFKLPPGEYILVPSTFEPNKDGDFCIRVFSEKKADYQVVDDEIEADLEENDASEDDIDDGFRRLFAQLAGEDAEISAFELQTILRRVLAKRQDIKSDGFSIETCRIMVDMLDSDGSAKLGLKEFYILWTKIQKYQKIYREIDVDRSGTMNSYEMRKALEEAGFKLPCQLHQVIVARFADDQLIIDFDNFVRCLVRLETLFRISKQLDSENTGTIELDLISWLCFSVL

[7] = target: T3, Protein Tat (Human immunodeficiency virus type 1 group M subtype B (isolate HXB2)(HIV-1), UniProt P04608); format: functional;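 further: tat binding to TAR RNA read out by fluorescence polarization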
T3 sequence (P04608 whole entry): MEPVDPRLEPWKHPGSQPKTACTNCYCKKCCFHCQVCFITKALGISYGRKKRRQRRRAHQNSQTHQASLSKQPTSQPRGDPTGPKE

[8] = target: Neuropeptide Y receptor type 1 (Homo sapiens, UniProt P25929); format: functional;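 further: HEK293 cells with a CNG channel challenged with NPY then isoproterenol; potency as antagonist that reverses NPY suppression of cAMP signal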
[9] = inhibitors of SNCA 5'UTR-driven reporter translation, confirmation, H4 neuroglioma cells, luminescence (AID 1988); format: functional, cell-based
[10] = target: Neuropeptide Y receptor type 2 (Homo sapiens, UniProt P49146); format: functional, cell-based;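 further: HEK293 cells expressing the receptor and a CNG channel; stimulus was NPY near EC95 followed by isoproterenol to raise cAMP; antagonist potency measured as restoring cAMP signal that NPY suppresses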
[11] = test system: Streptococcus; experiment: Group A Streptococcus viability loss, dose response, counter-screen for streptokinase expression inhibitor project, luminescence, BacTiterGlo (AID 1915); format: functional, organism-based;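 further: potency for reduction of bacterial viability or growth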
[12] = Vero E6 cell cytotoxicity, dose response, cytotoxicity control for non-replicating M. tuberculosis project, secondary assay (AID 492998); format: functional, VeroE6; conditions: Vero C1008
[13] = target: Dual specificity tyrosine-phosphorylation-regulated kinase 1A (Rattus norvegicus, UniProt Q63470); format: biochemical, Homo sapiens
[14] = miR-122 activators in hepatoma reporter cells, dose response, cell-based, Huh7 psiCHECK-miR122, Renilla luciferase, cherry-picked (AID 651956); format: functional;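 further: huh7 hepatoma cells stably carrying a psiCHECK-2 miR-122 sensor plasmid; renilla luciferase signal reporting endogenous miR-122 activity after 48 h compound exposure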
[15] = Artemis endonuclease inhibitor potency, dose response, biochemical, fluorescence intensity (AID 720701); format: functional;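 further: Artemis endonuclease enzyme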
[16] = target: Integrin alpha-4 (Homo sapiens, UniProt P13612); experiment: VLA-4 integrin allosteric ligands, SAR follow-up, cell-based, LIBS antibody binding, flow cytometry (AID 488791); format: functional
[17] = target: Caspase-7 (Homo sapiens, UniProt P55210); experiment: human caspase-7 inhibitors, dose response, selectivity assay for caspase-6 inhibitor project, biochemical, DEVD-R110 fluorescence, cherry-pick (AID 743295)

Sequence of Voltage-gated N-type calcium channel alpha-1B subunit/Amyloid beta A4 precursor protein-binding family A member 1 (Q00975 whole entry): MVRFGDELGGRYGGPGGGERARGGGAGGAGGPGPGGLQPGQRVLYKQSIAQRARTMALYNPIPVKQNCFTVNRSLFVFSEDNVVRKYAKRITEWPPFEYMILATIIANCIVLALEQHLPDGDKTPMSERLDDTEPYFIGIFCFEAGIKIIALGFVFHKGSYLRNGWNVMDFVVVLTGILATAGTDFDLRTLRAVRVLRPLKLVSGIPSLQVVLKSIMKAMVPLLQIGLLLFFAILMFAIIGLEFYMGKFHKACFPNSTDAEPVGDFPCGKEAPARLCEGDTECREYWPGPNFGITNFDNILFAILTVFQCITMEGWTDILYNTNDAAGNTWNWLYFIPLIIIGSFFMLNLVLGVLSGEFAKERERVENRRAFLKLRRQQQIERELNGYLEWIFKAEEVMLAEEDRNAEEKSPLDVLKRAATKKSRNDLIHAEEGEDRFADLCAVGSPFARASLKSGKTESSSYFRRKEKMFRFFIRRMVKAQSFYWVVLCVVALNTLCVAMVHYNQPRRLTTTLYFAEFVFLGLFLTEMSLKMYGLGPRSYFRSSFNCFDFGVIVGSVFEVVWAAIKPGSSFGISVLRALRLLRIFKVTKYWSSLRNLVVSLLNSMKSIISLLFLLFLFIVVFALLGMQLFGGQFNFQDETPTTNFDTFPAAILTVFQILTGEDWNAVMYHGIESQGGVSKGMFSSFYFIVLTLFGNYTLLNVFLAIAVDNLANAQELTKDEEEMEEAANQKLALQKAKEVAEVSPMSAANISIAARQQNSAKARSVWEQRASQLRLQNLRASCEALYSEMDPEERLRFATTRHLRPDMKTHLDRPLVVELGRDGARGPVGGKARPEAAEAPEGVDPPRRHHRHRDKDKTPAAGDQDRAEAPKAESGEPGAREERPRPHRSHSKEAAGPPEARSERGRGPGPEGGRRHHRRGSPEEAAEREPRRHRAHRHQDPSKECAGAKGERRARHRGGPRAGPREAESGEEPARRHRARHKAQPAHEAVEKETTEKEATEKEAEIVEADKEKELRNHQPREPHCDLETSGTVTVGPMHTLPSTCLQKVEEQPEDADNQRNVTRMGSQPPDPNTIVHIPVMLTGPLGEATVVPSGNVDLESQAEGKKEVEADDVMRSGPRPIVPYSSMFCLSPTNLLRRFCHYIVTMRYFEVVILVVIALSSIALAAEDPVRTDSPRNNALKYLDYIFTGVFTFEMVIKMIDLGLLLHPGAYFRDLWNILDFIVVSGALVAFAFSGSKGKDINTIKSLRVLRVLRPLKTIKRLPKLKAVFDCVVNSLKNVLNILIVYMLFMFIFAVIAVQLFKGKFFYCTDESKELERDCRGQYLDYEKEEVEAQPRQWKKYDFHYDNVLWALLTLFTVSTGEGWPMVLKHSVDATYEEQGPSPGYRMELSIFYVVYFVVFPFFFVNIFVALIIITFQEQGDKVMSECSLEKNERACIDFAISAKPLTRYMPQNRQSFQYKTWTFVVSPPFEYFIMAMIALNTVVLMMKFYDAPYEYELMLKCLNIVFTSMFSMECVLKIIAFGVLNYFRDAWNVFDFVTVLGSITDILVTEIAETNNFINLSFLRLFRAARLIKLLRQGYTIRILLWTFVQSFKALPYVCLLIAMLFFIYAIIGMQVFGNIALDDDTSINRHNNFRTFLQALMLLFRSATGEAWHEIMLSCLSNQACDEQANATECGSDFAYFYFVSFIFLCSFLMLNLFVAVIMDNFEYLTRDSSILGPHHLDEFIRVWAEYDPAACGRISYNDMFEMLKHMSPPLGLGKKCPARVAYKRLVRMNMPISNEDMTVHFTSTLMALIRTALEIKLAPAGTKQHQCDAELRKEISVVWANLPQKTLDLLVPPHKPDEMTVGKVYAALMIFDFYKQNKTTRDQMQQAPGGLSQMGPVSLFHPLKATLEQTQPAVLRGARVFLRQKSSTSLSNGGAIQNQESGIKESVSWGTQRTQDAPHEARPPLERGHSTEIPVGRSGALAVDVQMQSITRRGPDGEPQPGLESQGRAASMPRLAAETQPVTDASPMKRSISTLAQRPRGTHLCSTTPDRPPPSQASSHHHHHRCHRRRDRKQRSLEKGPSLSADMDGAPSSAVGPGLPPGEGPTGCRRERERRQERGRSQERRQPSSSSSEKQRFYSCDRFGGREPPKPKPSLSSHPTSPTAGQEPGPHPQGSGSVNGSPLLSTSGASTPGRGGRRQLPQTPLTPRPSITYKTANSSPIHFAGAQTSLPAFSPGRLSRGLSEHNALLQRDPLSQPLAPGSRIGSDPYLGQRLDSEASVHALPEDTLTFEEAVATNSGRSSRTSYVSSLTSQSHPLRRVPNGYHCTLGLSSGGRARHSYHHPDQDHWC
Sequence of Voltage-gated N-type calcium channel alpha-1B subunit/Amyloid beta A4 precursor protein-binding family A member 1 (Q02410 whole entry): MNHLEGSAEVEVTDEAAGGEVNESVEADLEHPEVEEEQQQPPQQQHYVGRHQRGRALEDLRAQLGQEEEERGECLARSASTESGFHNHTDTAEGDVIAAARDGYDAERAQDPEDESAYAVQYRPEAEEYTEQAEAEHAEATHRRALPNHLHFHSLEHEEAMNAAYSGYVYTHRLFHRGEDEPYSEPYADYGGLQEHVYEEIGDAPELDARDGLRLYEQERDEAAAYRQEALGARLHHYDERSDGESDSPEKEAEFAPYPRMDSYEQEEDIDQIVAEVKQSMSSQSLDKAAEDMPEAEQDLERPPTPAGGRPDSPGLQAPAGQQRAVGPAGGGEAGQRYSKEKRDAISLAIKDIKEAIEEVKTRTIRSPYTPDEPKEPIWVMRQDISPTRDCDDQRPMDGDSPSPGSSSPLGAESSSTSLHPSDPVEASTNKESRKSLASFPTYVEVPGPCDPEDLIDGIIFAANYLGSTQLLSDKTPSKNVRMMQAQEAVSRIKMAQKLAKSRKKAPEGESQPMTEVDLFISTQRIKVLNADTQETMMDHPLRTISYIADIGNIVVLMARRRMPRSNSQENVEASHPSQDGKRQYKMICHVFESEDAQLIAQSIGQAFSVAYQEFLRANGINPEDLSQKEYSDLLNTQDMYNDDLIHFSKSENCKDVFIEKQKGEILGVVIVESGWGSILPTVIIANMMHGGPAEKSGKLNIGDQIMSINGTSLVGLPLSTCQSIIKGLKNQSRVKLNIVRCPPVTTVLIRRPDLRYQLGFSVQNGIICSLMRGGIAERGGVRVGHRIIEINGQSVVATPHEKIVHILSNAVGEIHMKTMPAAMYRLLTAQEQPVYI
Sequence of Integrin alpha-4 (P13612 whole entry): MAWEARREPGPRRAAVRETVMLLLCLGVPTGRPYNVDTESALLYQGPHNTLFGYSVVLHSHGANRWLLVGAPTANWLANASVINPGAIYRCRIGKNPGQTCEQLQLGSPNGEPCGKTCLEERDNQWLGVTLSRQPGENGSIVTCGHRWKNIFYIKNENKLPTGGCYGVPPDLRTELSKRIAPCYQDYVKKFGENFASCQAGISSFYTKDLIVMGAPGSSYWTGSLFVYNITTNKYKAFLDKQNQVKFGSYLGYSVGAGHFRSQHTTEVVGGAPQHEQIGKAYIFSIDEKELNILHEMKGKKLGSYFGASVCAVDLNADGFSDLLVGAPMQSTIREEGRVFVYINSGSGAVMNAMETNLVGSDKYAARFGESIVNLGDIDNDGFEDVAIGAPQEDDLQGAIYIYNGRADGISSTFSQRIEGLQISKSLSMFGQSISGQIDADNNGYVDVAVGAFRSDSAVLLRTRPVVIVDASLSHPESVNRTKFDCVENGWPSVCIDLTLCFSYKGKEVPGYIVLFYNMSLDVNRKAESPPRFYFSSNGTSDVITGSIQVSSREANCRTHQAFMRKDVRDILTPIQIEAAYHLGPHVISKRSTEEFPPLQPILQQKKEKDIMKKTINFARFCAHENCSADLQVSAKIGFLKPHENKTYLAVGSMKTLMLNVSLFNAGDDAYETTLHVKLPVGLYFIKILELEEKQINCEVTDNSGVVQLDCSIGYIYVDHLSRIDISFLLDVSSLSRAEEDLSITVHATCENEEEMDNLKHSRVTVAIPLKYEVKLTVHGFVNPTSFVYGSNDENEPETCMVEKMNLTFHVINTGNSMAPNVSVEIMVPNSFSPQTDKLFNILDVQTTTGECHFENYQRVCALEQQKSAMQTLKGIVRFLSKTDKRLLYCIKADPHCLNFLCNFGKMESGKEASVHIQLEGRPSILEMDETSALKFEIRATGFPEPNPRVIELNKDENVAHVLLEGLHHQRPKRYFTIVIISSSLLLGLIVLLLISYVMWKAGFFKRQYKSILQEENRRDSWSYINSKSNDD
Sequence of Sphingosine 1-phosphate receptor 1 (P21453 whole entry): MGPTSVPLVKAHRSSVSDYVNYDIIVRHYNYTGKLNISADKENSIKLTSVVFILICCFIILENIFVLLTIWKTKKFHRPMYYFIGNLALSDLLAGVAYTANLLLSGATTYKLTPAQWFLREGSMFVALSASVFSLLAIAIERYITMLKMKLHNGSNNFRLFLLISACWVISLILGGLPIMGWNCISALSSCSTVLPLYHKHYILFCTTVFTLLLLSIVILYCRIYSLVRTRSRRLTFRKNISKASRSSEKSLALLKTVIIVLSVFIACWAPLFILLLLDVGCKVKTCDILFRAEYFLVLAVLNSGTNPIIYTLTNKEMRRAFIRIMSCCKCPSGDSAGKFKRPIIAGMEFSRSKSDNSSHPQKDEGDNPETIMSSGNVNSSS
Sequence of Neuropeptide Y receptor type 2 (P49146 whole entry): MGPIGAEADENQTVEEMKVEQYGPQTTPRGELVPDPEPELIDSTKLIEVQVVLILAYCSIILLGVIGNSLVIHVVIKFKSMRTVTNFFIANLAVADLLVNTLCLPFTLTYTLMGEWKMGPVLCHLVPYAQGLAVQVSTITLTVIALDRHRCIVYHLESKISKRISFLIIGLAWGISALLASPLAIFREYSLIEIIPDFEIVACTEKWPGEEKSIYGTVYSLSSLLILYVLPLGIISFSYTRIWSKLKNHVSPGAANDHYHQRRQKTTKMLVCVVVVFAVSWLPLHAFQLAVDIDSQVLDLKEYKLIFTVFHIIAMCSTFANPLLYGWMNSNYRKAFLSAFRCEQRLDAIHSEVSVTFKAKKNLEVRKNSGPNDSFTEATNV

Which EC50 [1] does the source give for `CCCC(=O)NC(c1ccccc1OC)c1ccc2cccnc2c1O` (configuration not stated) here?
The EC50 was 28.7 µM (active).

And the EC50 [2]?
Its EC50 is 25.9 µM (active).

With `COC(CNC(=O)c1ccc2c3c(onc13)-c1ccccc1C2=O)OC` as the compound, how does the IC50 [3] read?
Its IC50 is 1.63 µM (active).

What about the IC50 [4] of the same compound?
The IC50 was 15.1 µM (not active).

With `COc1cc(-c2ccc(Nc3ccccc3C(=O)O)c(OC)c2)ccc1Nc1ccccc1C(=O)O` as the compound, how does the IC50 [5] read?
Its IC50 is 7.6 µM (active).

What about the IC50 [6] of the same compound?
Its IC50 is 2.87 µM (not active).

And the IC50 [7]?
Its IC50 is 12.7 µM (inconclusive).

Which results are given for `Nc1ccc2c(c1)C(=O)C(=O)c1ccccc1-2`?
IC50 [8]: 4.54 µM (active); EC50 [9]: > 120 µM (not active); IC50 [10]: 4.25 µM (active); EC50 [11]: 4.95 µM (active); CC50 [12]: 1.81 µM (active); AC50 [13]: 0.547 µM (active); AC50 [14]: 10.7 µM (active); IC50 [15]: < 0.63 µM (active)

With `COC(=O)[C@@H]1[C@@H](C(=O)OC)C2(c3ccccc3-c3ccccc32)N(c2ccc(Cl)cc2)N1C#N` as the compound, how does the EC50 [16] read?
Its EC50 is > 49.2 µM (inactive).

With `COc1ccc(OC)c(Nc2cc3ccccc3c(O)n2)c1` as the compound, how does the AC50 [17] read?
Its AC50 is 5.9 µM (active).

Reference: ChEMBL document CHEMBL1201862, “PubChem BioAssay data set” (2004)
